Where a name gives a salt, the structure may show the parent alone.
Target: T1, SIRT1 (Homo sapiens, UniProt Q96EB6)
T1 sequence (Q96EB6 1-747): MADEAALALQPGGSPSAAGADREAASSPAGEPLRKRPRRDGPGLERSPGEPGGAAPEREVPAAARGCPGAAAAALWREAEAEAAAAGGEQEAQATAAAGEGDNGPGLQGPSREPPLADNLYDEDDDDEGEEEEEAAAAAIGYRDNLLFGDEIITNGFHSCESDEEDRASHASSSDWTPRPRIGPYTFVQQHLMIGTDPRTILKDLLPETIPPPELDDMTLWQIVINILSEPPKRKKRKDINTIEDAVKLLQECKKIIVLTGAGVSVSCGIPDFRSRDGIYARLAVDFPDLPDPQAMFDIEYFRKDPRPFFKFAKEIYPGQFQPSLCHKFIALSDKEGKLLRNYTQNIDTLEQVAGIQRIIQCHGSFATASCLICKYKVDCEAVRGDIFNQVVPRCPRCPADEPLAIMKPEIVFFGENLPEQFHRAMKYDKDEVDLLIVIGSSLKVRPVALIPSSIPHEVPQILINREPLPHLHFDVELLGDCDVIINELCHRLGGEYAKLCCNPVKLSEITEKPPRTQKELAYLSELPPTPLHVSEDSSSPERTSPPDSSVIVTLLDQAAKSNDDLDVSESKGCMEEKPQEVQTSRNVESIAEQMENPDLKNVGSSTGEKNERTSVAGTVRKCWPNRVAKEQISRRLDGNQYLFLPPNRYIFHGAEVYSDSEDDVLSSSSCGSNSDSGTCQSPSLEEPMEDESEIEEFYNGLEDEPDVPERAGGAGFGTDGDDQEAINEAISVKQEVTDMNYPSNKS
Experiment: Mass spectrometry based SIRT1 deacetylation (activation) assay
Format: biochemical
Conditions: 0.5 μM peptide substrate, 120 μM βNAD+, 10 nM SIRT1, 25 min at 25° C.; for Emax: 25 min, read-out: % Fold Act. (percent maximum fold activation)
Description: A mass spectrometry based assay was used to identify modulators of SIRT1 activity. The mass spectrometry based assay utilizes a peptide having 20 amino acid residues as follows: Ac-EE-K(biotin)-GQSTSSHSK(Ac)NleSTEG-K(5TMR)-EE-NH2 (SEQ ID NO: 1) wherein K(Ac) is an acetylated lysine residue and Nle is a norleucine. The peptide is labeled with the fluorophore 5TMR (excitation 540 nm/emission 580 nm) at the C-terminus. The sequence of the peptide substrate is based on p53 with several modifications. In addition, the methionine residue naturally present in the sequence was replaced with the norleucine because the methionine may be susceptible to oxidation during synthesis and purification.
The mass spectrometry assay is conducted as follows: 0.5 μM peptide substrate and 120 μM βNAD^+ is incubated with 10 nM SIRT1 for 25 minutes at 25° C. in a reaction buffer (50 mM Tris-acetate pH 8, 137 mM NaCl, 2.7 mM KCl, 1 mM MgCl2, 5 mM DTT, 0.05% BSA). Test compounds may be added to the reaction as described above. […] After the 25 minute incubation with SIRT1, 10 μL of 10% formic acid is added to stop the reaction. Reactions are sealed and frozen for later mass spec analysis. Determination of the mass of the substrate peptide allows for precise determination of the degree of acetylation (i.e. starting material) as compared to deacetylated peptide (product).
A control for inhibition of sirtuin activity is conducted by adding 1 μL of 500 mM nicotinamide as a negative control at the start of the reaction (e.g., permits determination of maximum sirtuin inhibition). A control for activation of sirtuin activity is conducted using 10 nM of sirtuin protein, with 1 μL of DMSO in place of compound, to determine the amount of deacetylation of the substrate at a given timepoint within the linear range of the assay. This timepoint is the same as that used for test compounds and, within the linear range, the endpoint represents a change in velocity.
For the above assay, SIRT1 protein was expressed and purified as follows. […] The protein was expressed by induction with 1 mM IPTG as an N-terminal His-tag fusion protein at 18° C. overnight and harvested at 30,000×g. Cells were lysed with lysozyme in lysis buffer (50 mM Tris-HCl, 2 mM Tris[2-carboxyethyl]phosphine (TCEP), 10 μM ZnCl2, 200 mM NaCl) and further treated with sonication for 10 min for complete lysis. The protein was purified over a Ni-NTA column (Amersham) and fractions containing pure protein were pooled, concentrated and run over a sizing column (Sephadex S200 26/60 global). The peak containing soluble protein was collected and run on an Ion-exchange column (MonoQ). Gradient elution (200 mM-500 mM NaCl) yielded pure protein. This protein was concentrated and dialyzed against dialysis buffer (20 mM Tris-HCl, 2 mM TCEP) overnight. The protein was aliquoted and frozen at −80° C. until further use.

SMILES	EC1.5	Emax [%]
CCN(CCN(C)C)c1cc(C(=O)Nc2ccccc2C(=O)N[C@@H]2CCCC[C@H]2O)nc(-c2ccccc2)n1 [Compound 171, 6-((2-(dimethylamino)ethyl)(ethyl)amino)-N-(2-((1R,2R)-2-hydroxycyclohexylcarbamoyl)phenyl)-2-phenylpyrimidine-4-carboxamide]	A (EC1.5≦1 uM)	≥ 300
COCCNC(=O)c1ccccc1NC(=O)c1cc(NCCN(C)C)nc(-c2ccccc2)n1 [Compound 122, 6-(2-(dimethylamino)ethylamino)-N-(2-(2-methoxyethylcarbamoyl)phenyl)-2-phenylpyrimidine-4-carboxamide]	C (EC1.5>10 uM)	≥ 300
O=C(Nc1ccccc1-c1nnc(C(=O)N2CCOCC2)s1)c1cc(OC[C@@H](O)CO)nc(-c2ccccc2)n1 [Compound 91]	A (EC1.5≦1 uM)	150 to 300
CC(C)c1nnc(-c2ccccc2NC(=O)c2cc(NCCN(C)C)nc(-c3ccccc3)n2)s1 [Compound 72]	A (EC1.5≦1 uM)	≥ 300
CC(C)Cc1nnc(-c2ccccc2NC(=O)c2cc(NCCN(C)C)nc(-c3ccccc3)n2)s1 [Compound 60]	A (EC1.5≦1 uM)	150 to 300
CN(C)CCNc1cc(C(=O)Nc2ccccc2C(=O)N(C)c2ccccc2)nc(-c2ccccc2)n1 [Compound 151, 6-(2-(dimethylamino)ethylamino)-N-(2-(methyl(phenyl)carbamoyl)phenyl)-2-phenylpyrimidine-4-carboxamide]	C (EC1.5>10 uM)	150 to 300
CCN(CCN(C)C)c1cc(C(=O)Nc2ccccc2-c2nnc(SC)s2)nc(-c2ccccc2)n1 [Compound 115]	A (EC1.5≦1 uM)	≥ 300
CCN(CCN(C)C)c1cc(C(=O)Nc2ccccc2-c2nnc(C3CCOCC3)s2)nc(-c2ccccc2)n1 [Compound 93, 6-((2-(dimethylamino)ethyl)(ethyl)amino)-2-phenyl-N-(2-(5-(tetrahydro-2H-pyran-4-yl)-1,3,4-thiadiazol-2-yl)phenyl)pyrimidine-4-carboxamide hydrochloride]	A (EC1.5≦1 uM)	≥ 300
CN(C)CCN(C)c1cc(C(=O)Nc2ccccc2-c2nnc(-c3ccccc3)s2)nc(-c2ccccc2)n1 [Compound 179]	C (EC1.5>10 uM)	150 to 300
CN(C)CCNc1cc(C(=O)Nc2ccccc2C(=O)NCCC(=O)O)nc(-c2ccccc2)n1 [Compound 130, 3-(2-(6-(2-(dimethylamino)ethylamino)-2-phenylpyrimidine-4-carboxamido)benzamido)propanoic acid]	B (EC1.5>1 and ≦10 uM)	150 to 300
CCN(CCN(C)C)c1cc(C(=O)Nc2ccccc2-c2nnc([S+](C)[O-])s2)nc(-c2ccccc2)n1 (stereo not drawn) [Compound 116]	A (EC1.5≦1 uM)	≥ 300
O=C1CN(c2cc(C(=O)Nc3ccccc3-c3nnc(C(=O)N4CCOCC4)s3)nc(-c3ccccc3)n2)CCN1 [Compound 89]	A (EC1.5≦1 uM)	≥ 300
CSCCNC(=O)c1ccccc1NC(=O)c1cc(NCCN(C)C)nc(-c2ccccc2)n1 [Compound 148, 6-(2-(dimethylamino)ethylamino)-N-(2-(2-(methylthio)ethylcarbamoyl)phenyl)-2-phenylpyrimidine-4-carboxamide]	B (EC1.5>1 and ≦10 uM)	≥ 300
CC(=O)c1ccccc1NC(=O)c1cc(NC2CCNCC2)nc(-c2ccccc2)n1 [Compound 140]	A (EC1.5≦1 uM)	≥ 300
CN(C)CCNC(=O)c1nnc(-c2ccccc2NC(=O)c2cc(NCCN(C)C)nc(-c3ccccc3)n2)s1 [Compound 58]	A (EC1.5≦1 uM)	≥ 300
NC(=O)c1nnc(-c2ccccc2NC(=O)c2cc(N3CCN4CCC[C@H]4C3)nc(-c3ccccc3)n2)s1 [Compound 69]	A (EC1.5≦1 uM)	150 to 300
COCCN(CCOC)c1cc(C(=O)Nc2ccccc2-c2nnc(N3CCOCC3)s2)nc(-c2ccccc2)n1 [Compound 106]	A (EC1.5≦1 uM)	150 to 300
CCN(CCN(C)C)c1cc(C(=O)Nc2ccccc2-c2nncs2)nc(-c2ccccc2)n1 [Compound 41]	A (EC1.5≦1 uM)	≥ 300
CCN(CCN(C)C)c1cc(C(=O)Nc2ccccc2C(=O)NC2CC2)nc(-c2ccccc2)n1 [Compound 168, N-(2-(cyclopropylcarbamoyl)phenyl)-6-((2-(dimethylamino)ethyl)(ethyl)amino)-2-phenylpyrimidine-4-carboxamide]	A (EC1.5≦1 uM)	150 to 300
CCN(CCN(C)C)c1cc(C(=O)Nc2ccccc2-c2nnc(C3CCC3)s2)nc(-c2ccccc2)n1 [Compound 51]	A (EC1.5≦1 uM)	150 to 300
CCN(CCN(C)C)c1cc(C(=O)Nc2ccccc2-c2nnc(C(F)=C3CCOCC3)s2)nc(-c2ccccc2)n1 [Compound 114, 6-((2-(dimethylamino)ethyl)(ethyl)amino)-N-(2-(5-(fluoro(2H-pyran-4(3H,5H,6H)-ylidene)methyl)-1,3,4-thiadiazol-2-yl)phenyl)-2-phenylpyrimidine-4-carboxamide]	A (EC1.5≦1 uM)	≥ 300
O=C1CN(c2cc(C(=O)Nc3ccccc3-c3nnc(N4CCN5CCC[C@H]5C4)s3)nc(-c3ccccc3)n2)CCN1 [Compound 118]	A (EC1.5≦1 uM)	150 to 300
CCOC(=O)c1nnc(-c2ccccc2NC(=O)c2cc(N(C)CCN(C)C)nc(-c3ccccc3)n2)s1 [Compound 57]	C (EC1.5>10 uM)	< 150
CN(C)CCNc1cc(C(=O)Nc2ccccc2-c2nc(-c3ccccc3)cs2)nc(-c2ccccc2)n1 [Compound 14]	B (EC1.5>1 and ≦10 uM)	150 to 300
CN(C)CCNc1cc(C(=O)Nc2ccccc2-c2nnc(-c3ccccn3)s2)nc(-c2ccccc2)n1 [Compound 73]	A (EC1.5≦1 uM)	≥ 300
CCN(CCN(C)C)c1cc(C(=O)Nc2ccccc2-c2ncc(C(C)(C)C)s2)nc(-c2ccccc2)c1 [Compound 42]	A (EC1.5≦1 uM)	150 to 300
O=C(Nc1ccccc1-c1nnc(N2CCOCC2)s1)c1cc(N2CCOCC2)nc(-c2ccccc2)n1 [Compound 100]	A (EC1.5≦1 uM)	150 to 300
CN(C)CCNc1cc(C(=O)Nc2ccccc2-c2nnc(-c3ccccc3)s2)nc(-c2ccccc2)c1 [Compound 33]	A (EC1.5≦1 uM)	≥ 300
O=C1CN(c2cc(C(=O)Nc3ccccc3-c3nncs3)nc(-c3ccccc3)n2)CCN1 [Compound 95]	A (EC1.5≦1 uM)	≥ 300
CCN(CCN(C)C)c1cc(C(=O)Nc2ccccc2-c2nnc(-c3ccccc3)s2)nc(-c2ccccc2)n1 [Compound 36]	A (EC1.5≦1 uM)	150 to 300
